Results taken from US20020026053A1, “Novel 3-(substituted) -2- indolinones compounds and use thereof as inhibitors of protein kinase activity” (priority 1997, published 2002).

Target: T1, Met receptor (EGFR/Met chimeric cells, EMR) (Homo sapiens, UniProt P08581)
T1 construct: expressed in transfected cells; the other entry of the earlier key: EGFR (P00533, Epidermal growth factor receptor)
Assay: Met Autophosphorylation Assay
Format: biochemical
Procedure, shortened: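 Transiently transfected EGFR/Met chimeric (EMR) cells were lysed in HNTG with 1 mM PMSF. Met was captured on plates coated with goat anti-rabbit IgG, then rabbit anti-Met (C-28), using 90 μg lysate/100 μl for 60 min at room temperature. Phosphotyrosine was read by ELISA.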

T1 sequence (P08581 with tags, fused parts or gaps): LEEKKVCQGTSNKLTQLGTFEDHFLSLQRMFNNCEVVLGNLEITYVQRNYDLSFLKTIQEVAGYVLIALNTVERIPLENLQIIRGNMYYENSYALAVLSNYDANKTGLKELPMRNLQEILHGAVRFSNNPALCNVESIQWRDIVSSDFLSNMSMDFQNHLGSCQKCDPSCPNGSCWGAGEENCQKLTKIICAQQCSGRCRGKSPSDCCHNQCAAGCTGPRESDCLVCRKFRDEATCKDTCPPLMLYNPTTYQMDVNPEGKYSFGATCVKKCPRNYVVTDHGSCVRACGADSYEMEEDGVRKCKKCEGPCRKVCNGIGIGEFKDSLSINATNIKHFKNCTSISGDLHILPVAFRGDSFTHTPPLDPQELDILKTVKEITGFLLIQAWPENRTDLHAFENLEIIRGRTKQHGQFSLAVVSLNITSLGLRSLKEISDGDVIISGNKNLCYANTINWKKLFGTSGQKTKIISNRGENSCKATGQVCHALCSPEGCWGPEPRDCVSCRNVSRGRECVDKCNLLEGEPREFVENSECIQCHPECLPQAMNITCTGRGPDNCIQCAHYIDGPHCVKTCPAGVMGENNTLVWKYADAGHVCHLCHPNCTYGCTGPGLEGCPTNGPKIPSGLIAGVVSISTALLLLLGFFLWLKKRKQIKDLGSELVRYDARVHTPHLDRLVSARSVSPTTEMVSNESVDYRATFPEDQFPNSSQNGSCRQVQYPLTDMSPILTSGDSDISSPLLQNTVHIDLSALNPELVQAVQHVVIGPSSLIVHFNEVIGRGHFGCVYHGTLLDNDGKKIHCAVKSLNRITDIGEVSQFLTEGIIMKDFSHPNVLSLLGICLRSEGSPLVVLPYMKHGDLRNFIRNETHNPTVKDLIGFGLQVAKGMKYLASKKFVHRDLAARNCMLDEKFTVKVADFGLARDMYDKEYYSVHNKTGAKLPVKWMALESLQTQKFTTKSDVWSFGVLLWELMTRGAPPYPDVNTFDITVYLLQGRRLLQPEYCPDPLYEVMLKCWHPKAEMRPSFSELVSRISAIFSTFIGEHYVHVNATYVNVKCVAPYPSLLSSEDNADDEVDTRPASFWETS

Row | Compound | Met Kinase % Inhibition (P.130) [%]
1 | Cc1c(Br)cc(Br)c2c1C(=Cc1ccc(O)cc1)C(=O)N2 [10719/H07] | 22.9
2 | Cc1c(Br)cc(Br)c2c1C(=Cc1ccc(N(C)C)cc1)C(=O)N2 [10719/H08] | 20.0
3 | Cc1c(Br)cc(Br)c2c1C(=Cc1ccc(F)cc1Cl)C(=O)N2 [10719/H09] | 5.8
4 | Cc1c(Br)cc(Br)c2c1C(=Cc1cccc([N+](=O)[O-])c1)C(=O)N2 [10719/H10] | −5.7
5 | Cc1c(Br)cc(Br)c2c1C(=Cc1ccc(F)cc1C(F)(F)F)C(=O)N2 [10719/H11] | 50.5
6 | Cc1c(Br)cc(Br)c2c1C(=Cc1c(F)cc(F)cc1F)C(=O)N2 [10720/H02] | 64.1
7 | COc1cc(O)ccc1C=C1C(=O)Nc2c(Br)cc(Br)c(C)c21 [10720/H03] | 40.0
8 | N#Cc1ccccc1C=C1C(=O)Nc2ccc(CCCl)cc21 [10735/G07] | 37.1
9 | O=C1Nc2ccc(CCCl)cc2C1=Cc1c(F)cccc1F [10735/G08] | 29.9
10 | O=C1Nc2ccc(CCCl)cc2C1=Cc1cccc2ccccc12 [10735/G09] | 16.8
11 | O=C1Nc2ccc(CCCl)cc2C1=Cc1ccc(Cl)cc1Cl [10735/G10] | 37.8
12 | O=C1Nc2ccc(CCCl)cc2C1=Cc1ccc(-c2ccccc2)cc1 [10735/G11] | 23.0
13 | Cc1ccccc1C=C1C(=O)Nc2c(Br)cc(Br)c(C)c21 [10735/H02] | 29.2
14 | Cc1c(Br)cc(Br)c2c1C(=Cc1ccc(F)c(F)c1)C(=O)N2 [10735/H03] | 40.8
15 | Cc1c(Br)cc(Br)c2c1C(=Cc1cc(F)cc(F)c1)C(=O)N2 [10735/H04] | 42.9
16 | Cc1c(Br)cc(Br)c2c1C(=Cc1cccc(C(F)(F)F)c1)C(=O)N2 [10735/H05] | 49.8
17 | Cc1c(Br)cc(Br)c2c1C(=Cc1cc(C(F)(F)F)cc(C(F)(F)F)c1)C(=O)N2 [10735/H06] | 57.2
18 | Cc1c(Br)cc(Br)c2c1C(=Cc1ccccc1C#N)C(=O)N2 [10735/H07] | 48.5
19 | Cc1c(Br)cc(Br)c2c1C(=Cc1c(F)cccc1F)C(=O)N2 [10735/H08] | 59.2
20 | Cc1c(Br)cc(Br)c2c1C(=Cc1cccc3ccccc13)C(=O)N2 [10735/H09] | 22.4
21 | Cc1c(Br)cc(Br)c2c1C(=Cc1ccc(Cl)cc1Cl)C(=O)N2 [10735/H10] | 29.9
22 | Cc1c(Br)cc(Br)c2c1C(=Cc1ccc(-c3ccccc3)cc1)C(=O)N2 [10735/H11] | 22.8
23 | O=C1Nc2c(Br)cc(Br)cc2C1=Cc1ccc(Cl)cc1 [10736/A02] | 72.5
24 | O=C1Nc2c(Br)cc(Br)cc2C1=Cc1ccccc1C(F)(F)F [10736/A03] | 42.6
25 | Cc1cccc(C=C2C(=O)Nc3c(Br)cc(Br)cc32)c1 [10736/A04] | 75.2
26 | Cc1ccc(C=C2C(=O)Nc3c(Br)cc(Br)cc32)cc1 [10736/A05] | 73.6
27 | O=C1Nc2c(Br)cc(Br)cc2C1=Cc1cccc(Cl)c1 [10736/A06] | 69.7

Row | Compound | Met Kinase % Inhibition (P.130) [%]
28 | O=C1Nc2c(Br)cc(Br)cc2C1=Cc1cccc(F)c1 [10736/A07] | 55.2
29 | O=C1Nc2c(Br)cc(Br)cc2C1=Cc1ccccc1F [10736/A08] | 58.7
30 | CCc1ccc(C=C2C(=O)Nc3c(Br)cc(Br)cc32)cc1 [10736/A09] | 69.7
31 | COc1cccc(C=C2C(=O)Nc3c(Br)cc(Br)cc32)c1 [10736/A10] | 65.0
32 | O=C1Nc2c(Br)cc(Br)cc2C1=Cc1ccccc1Cl [10736/A11] | 46.1
33 | O=C1Nc2ccc(I)cc2C1=Cc1ccc(Cl)cc1 [10736/B02] | 73.6
34 | O=C1Nc2ccc(I)cc2C1=Cc1ccccc1C(F)(F)F [10736/B03] | 65.5
35 | Cc1cccc(C=C2C(=O)Nc3ccc(I)cc32)c1 [10736/B04] | 65.5
36 | Cc1ccc(C=C2C(=O)Nc3ccc(I)cc32)cc1 [10736/B05] | 63.9
37 | O=C1Nc2ccc(I)cc2C1=Cc1cccc(Cl)c1 [10736/B06] | 60.6
38 | O=C1Nc2ccc(I)cc2C1=Cc1cccc(F)c1 [10736/B07] | 87.2
39 | O=C1Nc2ccc(I)cc2C1=Cc1ccccc1F [10736/B08] | 59.3
40 | CCc1ccc(C=C2C(=O)Nc3ccc(I)cc32)cc1 [10736/B09] | 55.2
41 | COc1cccc(C=C2C(=O)Nc3ccc(I)cc32)c1 [10736/B10] | 52.5
42 | O=C1Nc2ccc(I)cc2C1=Cc1ccccc1Cl [10736/B11] | 47.0
43 | Cc1c(Br)ccc2c1C(=Cc1ccc(Cl)cc1)C(=O)N2 [10736/C02] | 50.1
44 | Cc1c(Br)ccc2c1C(=Cc1ccccc1C(F)(F)F)C(=O)N2 [10736/C03] | 9.9
45 | Cc1cccc(C=C2C(=O)Nc3ccc(Br)c(C)c32)c1 [10736/C04] | 49.0
46 | Cc1ccc(C=C2C(=O)Nc3ccc(Br)c(C)c32)cc1 [10736/C05] | 44.6
47 | Cc1c(Br)ccc2c1C(=Cc1cccc(Cl)c1)C(=O)N2 [10736/C06] | 45.2
48 | Cc1c(Br)ccc2c1C(=Cc1cccc(F)c1)C(=O)N2 [10736/C07] | 55.6
49 | Cc1c(Br)ccc2c1C(=Cc1ccccc1F)C(=O)N2 [10736/C08] | 49.2
50 | CCc1ccc(C=C2C(=O)Nc3ccc(Br)c(C)c32)cc1 [10736/C09] | 27.9
51 | COc1cccc(C=C2C(=O)Nc3ccc(Br)c(C)c32)c1 [10736/C10] | 18.7
52 | Cc1c(Br)ccc2c1C(=Cc1ccccc1Cl)C(=O)N2 [10736/C11] | 11.0
53 | CNS(=O)(=O)c1ccc2c(c1)C(=Cc1ccc(Cl)cc1)C(=O)N2 [10736/D02] | 44.4
54 | CNS(=O)(=O)c1ccc2c(c1)C(=Cc1ccccc1C(F)(F)F)C(=O)N2 [10736/D03] | 14.7

Row | Compound | Met Kinase % Inhibition (P.130) [%]
55 | CNS(=O)(=O)c1ccc2c(c1)C(=Cc1cccc(C)c1)C(=O)N2 [10736/D04] | 8.1
56 | CNS(=O)(=O)c1ccc2c(c1)C(=Cc1ccc(C)cc1)C(=O)N2 [10736/D05] | 3.9
57 | CNS(=O)(=O)c1ccc2c(c1)C(=Cc1cccc(Cl)c1)C(=O)N2 [10736/D06] | 14.7
58 | CNS(=O)(=O)c1ccc2c(c1)C(=Cc1cccc(F)c1)C(=O)N2 [10736/D07] | 15.4
59 | CNS(=O)(=O)c1ccc2c(c1)C(=Cc1ccccc1F)C(=O)N2 [10736/D08] | 13.0
60 | CCc1ccc(C=C2C(=O)Nc3ccc(S(=O)(=O)NC)cc32)cc1 [10736/D09] | 14.1
61 | CNS(=O)(=O)c1ccc2c(c1)C(=Cc1cccc(OC)c1)C(=O)N2 [10736/D10] | 16.9
62 | CNS(=O)(=O)c1ccc2c(c1)C(=Cc1ccccc1Cl)C(=O)N2 [10736/D11] | 22.6
63 | O=C1Nc2ccc(S(=O)(=O)Nc3ccc(C(F)(F)F)cc3)cc2C1=Cc1ccc(Cl)cc1 [10736/E02] | 81.5
64 | O=C1Nc2ccc(S(=O)(=O)Nc3ccc(C(F)(F)F)cc3)cc2C1=Cc1ccccc1C(F)(F)F [10736/E03] | 33.0
65 | Cc1cccc(C=C2C(=O)Nc3ccc(S(=O)(=O)Nc4ccc(C(F)(F)F)cc4)cc32)c1 [10736/E04] | 61.8
66 | Cc1ccc(C=C2C(=O)Nc3ccc(S(=O)(=O)Nc4ccc(C(F)(F)F)cc4)cc32)cc1 [10736/E05] | 57.6
67 | O=C1Nc2ccc(S(=O)(=O)Nc3ccc(C(F)(F)F)cc3)cc2C1=Cc1cccc(Cl)c1 [10736/E06] | 66.6
68 | O=C1Nc2ccc(S(=O)(=O)Nc3ccc(C(F)(F)F)cc3)cc2C1=Cc1cccc(F)c1 [10736/E07] | 45.9
69 | O=C1Nc2ccc(S(=O)(=O)Nc3ccc(C(F)(F)F)cc3)cc2C1=Cc1ccccc1F [10736/E08] | 52.3
70 | CCc1ccc(C=C2C(=O)Nc3ccc(S(=O)(=O)Nc4ccc(C(F)(F)F)cc4)cc32)cc1 [10736/E09] | 53.8
71 | COc1cccc(C=C2C(=O)Nc3ccc(S(=O)(=O)Nc4ccc(C(F)(F)F)cc4)cc32)c1 [10736/E10] | 37.8
72 | O=C1Nc2ccc(S(=O)(=O)Nc3ccc(C(F)(F)F)cc3)cc2C1=Cc1ccccc1Cl [10736/E11] | 64.4
73 | O=C1Nc2ccc(S(=O)(=O)N3CCOCC3)cc2C1=Cc1ccc(Cl)cc1 [10736/F02] | 69.4
74 | O=C1Nc2ccc(S(=O)(=O)N3CCOCC3)cc2C1=Cc1ccccc1C(F)(F)F [10736/F03] | 23.9
75 | Cc1cccc(C=C2C(=O)Nc3ccc(S(=O)(=O)N4CCOCC4)cc32)c1 [10736/F04] | 45.2
76 | Cc1ccc(C=C2C(=O)Nc3ccc(S(=O)(=O)N4CCOCC4)cc32)cc1 [10736/F05] | 19.8
77 | O=C1Nc2ccc(S(=O)(=O)N3CCOCC3)cc2C1=Cc1cccc(Cl)c1 [10736/F06] | 49.0
78 | O=C1Nc2ccc(S(=O)(=O)N3CCOCC3)cc2C1=Cc1cccc(F)c1 [10736/F07] | 10.7
79 | O=C1Nc2ccc(S(=O)(=O)N3CCOCC3)cc2C1=Cc1ccccc1F [10736/F08] | −0.2
80 | CCc1ccc(C=C2C(=O)Nc3ccc(S(=O)(=O)N4CCOCC4)cc32)cc1 [10736/F09] | 40.2
